Laboratory results taken from patent publication US8329222B1, “Magnetic nanomedicine for tumor suppression and therapy” (priority 2011, dated 2012).

Columns and labels:
[1] = tested on: bladder tumor cells MGH-U1; assay: Fluorescence microscopy of cell entry after 4 hours; format: cell-based, human; conditions: reacted 4 hours, fluorescent microscope photos
Procedure: Add 2 mL of a mixture liquid containing 20,000 bladder tumor cells MGH-U1 to a 3.5 cm diameter cultivation plate. Place the cultivation plate in a humidified incubator having 5% CO2 in a temperature of 37° C. to enable adherent growth of the cells. Twenty-four hours later, add to the cultivation plate, 100 μL of RPMI1640 medium containing EPI, EPI/SPAnH/MNPs magnetic nanomedicine, DOX, and DOX/SPAnH/MNPs magnetic nanomedicine to react for 4 hours, then flush it with 1 mL of Hanks' balance slat solution (HBSS).

[2] = tested on: human bladder tumor cells (MGH-U1); assay: XTT growth suppression test on bladder tumor cells; format: cell-based; conditions: cultivated with MGH-U1 for 27 hours, no magnetic field, read-out: cell growth inhibit efficiency
Procedure: Cell Cultivation: Place 150 μL of a mixture liquid containing 10,000 human bladder tumor cells (MGH-U1) into each well of 96-well culture plate. Place the culture plate in a humidified incubator in a temperature of 37° C. and with 5% CO2 to enable adherent growth of the cells.
Agent Addition: 24 hours later, mix separately MNPs (concentration 600 μg/mL) EPI (concentrations 2, 5, 10 μM), and EPI/SPAnH/MNPs magnetic nanomedicine (concentrations 2, 5, 10 μM) with a RPMI1640 medium to form mixed solutions. Add respectively 50 μL of the mixed solutions to well, and then place the culture plate in a humidified incubator having 5% CO2 for 2, 4, 6, 10, and 27 hours.
Cell Counting: Remove RPMI1640 medium in the well and add 120 μL of an XTT reaction liquid (2,3-Bis(2-methoxy-4-nitro-5-sulfophenyl)-2H-tetrazolium-5-carboxanilide inner salt) to the wells. Use an ELISA reader (BIO-TEK, model EL 808) to measure the OD (Optical Density) values of each cell at a wavelength of 490 nm to determine the toxicity of SPAnH/MNPs magnetic nanocomposite and the cell-killing rate of EPI/SPAnH/MNPs magnetic nanomedicines to the bladder tumor cells.
Cell Cultivation: Place 150 μL of a mixture liquid containing 10,000 human bladder tumor cells (MGH-U1) into each well of 96-well culture plate. […]

COc1cccc2c1C(=O)c1c(O)c3c(c(O)c1C2=O)C[C@@](O)(C(=O)CO)C[C@@H]3O[C@H]1C[C@H](N)[C@H](O)[C@H](C)O1 [DOX, Doxorubicin]
entry into bladder tumor cell MGH-U1 [1]: do enter into the bladder tumor cell MGH-U1 | inhibition at 10 µM [2]: 66.2%

COc1cccc2c1C(=O)c1c(O)c3c(c(O)c1C2=O)C[C@@](O)(C(=O)CO)C[C@@H]3O[C@H]1C[C@H](N)[C@@H](O)[C@H](C)O1 [EPI, Epirubicin]
entry into bladder tumor cell MGH-U1 [1]: do enter into the bladder tumor cell MGH-U1 | inhibition at 10 µM [2]: 64.3%
